Reference: patent publication US9108921B2, “Therapeutic compounds and compositions” (AGIOS PHARMACEUTICALS, INC, priority 2014, dated 2015)

Columns and labels:
PKR WT [1] = biological target: T1, PKR WT (Homo sapiens, UniProt P30613); assay: PKR WT enzymatic AC50 assay; assay type: biochemical; details: wild type PKR
In short: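 LDH-coupled NADH depletion read as A340 change at room temperature after ADP (0.22-1.65 mM) start. Compounds, tested from 100 μM final in 3-fold steps over 11 points with 1% DMSO, sat 60 min with enzyme (80-400 ng/well), PEP 0.1-0.5 mM and NADH 180 uM in Tris pH 7.5/KCl/MgCl2/DTT/BSA buffer.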

PKR R510Q = PKR R510Q (Homo sapiens, UniProt P30613, R510Q); assay: PKR Mutant Assay, AC50 against PKR R510Q; assay type: biochemical; details: mutant PKR R510Q enzyme
In short: (§1)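 PK-LDH coupled assay, RT. Enzyme + cpd + PEP/NADH/LDH, 60 min pre-incubation, no ADP. ADP 0.22-1.65 mM to initiate; A340 kinetic read. Cpd 11 pts, 3-fold, 100 μM top.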

PKR R532W = PKR R532W (Homo sapiens, UniProt P30613, R532W); assay: PKR Mutant Assay, AC50 against PKR R532W; assay type: biochemical; details: mutant PKR R532W enzyme
In short: as §1

PKR WT [2] = biological target: T1, PKR WT; assay: PKR WT cell based AC50 assay; details: wild type PKR

Chain of PKR R532W (P30613 whole entry R532W): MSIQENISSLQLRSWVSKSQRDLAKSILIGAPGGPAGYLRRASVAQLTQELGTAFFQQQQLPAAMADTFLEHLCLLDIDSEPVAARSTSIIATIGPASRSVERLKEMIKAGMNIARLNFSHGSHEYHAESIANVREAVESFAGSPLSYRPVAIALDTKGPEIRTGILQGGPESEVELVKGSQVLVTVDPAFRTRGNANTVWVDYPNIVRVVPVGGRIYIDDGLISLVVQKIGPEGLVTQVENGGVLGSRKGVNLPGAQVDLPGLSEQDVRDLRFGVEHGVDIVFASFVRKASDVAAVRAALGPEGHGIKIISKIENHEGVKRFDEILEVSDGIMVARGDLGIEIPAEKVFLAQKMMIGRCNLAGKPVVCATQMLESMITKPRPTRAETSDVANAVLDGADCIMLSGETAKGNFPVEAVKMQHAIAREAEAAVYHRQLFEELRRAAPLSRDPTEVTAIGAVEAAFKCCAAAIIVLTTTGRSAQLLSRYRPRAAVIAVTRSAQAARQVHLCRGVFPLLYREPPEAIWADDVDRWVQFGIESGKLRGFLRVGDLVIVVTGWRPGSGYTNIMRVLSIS
T1 sequence (P30613 whole entry): as the sequence (P30613 whole entry R532W) above, with W532R counted along it
Chain of PKR R510Q (P30613 whole entry R510Q): as the sequence (P30613 whole entry R532W) above, with R510Q, W532R counted along it

AC50 (PKR WT [1]) | AC50 (PKR R510Q) | AC50 (PKR R532W) | AC50 (PKR WT [2]) | SMILES
< 100 nM | 101 to 1000 nM | < 100 nM | < 100 nM | Cc1cc(C(=O)N2CCC(O)(c3cccc(F)c3F)CC2)ccc1NS(=O)(=O)c1cccc2nccnc12 [Compound 175, N-(4-(4-(2,3-difluorophenyl)-4-hydroxypiperidine-1-carbonyl)-2-methylphenyl)quinoxaline-5-sulfonamide]
< 100 nM | 101 to 1000 nM | < 100 nM | < 100 nM | O=C(c1ccc(NS(=O)(=O)c2cccc3cccnc23)c(F)c1)N1CCC(O)(Cc2ccccc2)CC1 [Compound 163, N-(4-(4-benzyl-4-hydroxypiperidine-1-carbonyl)-2-fluorophenyl)quinoline-8-sulfonamide]
< 100 nM | < 100 nM | < 100 nM | < 100 nM | CC(C)CC1(O)CCN(C(=O)c2ccc(NS(=O)(=O)c3cccc4nccnc34)cc2)CC1 [Compound 160, N-(4-(4-hydroxy-4-isobutylpiperidine-1-carbonyl)phenyl)quinoxaline-5-sulfonamide]
< 100 nM | < 100 nM | < 100 nM | < 100 nM | Nc1nc2c(S(=O)(=O)Nc3ccc(C(=O)N4CCC(O)(CCCC(F)(F)F)CC4)cc3)cccc2s1 [Compound 420]
< 100 nM | < 100 nM | < 100 nM | < 100 nM | O=C(c1ccc(NS(=O)(=O)c2cccc3cccnc23)cc1)N1CCC(O)(c2ccccc2Cl)CC1 [Compound 122, N-(4-(4-(2-chlorophenyl)-4-hydroxypiperidine-1-carbonyl)phenyl)quinoline-8-sulfonamide]
< 100 nM | < 100 nM | < 100 nM | < 100 nM | CC(C)CC1(CO)CCN(C(=O)c2ccc(NS(=O)(=O)c3cccc4cccnc34)cc2)CC1 [Compound 172, N-(4-(4-(hydroxymethyl)-4-isobutylpiperidine-1-carbonyl)phenyl)quinoline-8-sulfonamide]
< 100 nM | < 100 nM | < 100 nM | < 100 nM | Cc1ccccc1CC1(O)CCN(C(=O)c2ccc(NS(=O)(=O)c3cccc4cccnc34)cc2)CC1 [Compound 108, N-(4-(4-hydroxy-4-(2-methylbenzyl)piperidine-1-carbonyl)phenyl)quinoline-8-sulfonamide]
< 100 nM | 101 to 1000 nM | < 100 nM | < 100 nM | O=C(c1ccc(NS(=O)(=O)c2cccc3cccnc23)cc1)N1CCC(O)(c2ccccc2F)CC1 [Compound 165, N-(4-(4-(2-fluorophenyl)-4-hydroxypiperidine-1-carbonyl)phenyl)quinoline-8-sulfonamide]
< 100 nM | 101 to 1000 nM | < 100 nM | < 100 nM | O=C(c1ccc(NS(=O)(=O)c2ccc(F)c3cccnc23)cc1)N1CCC(O)(c2ccccc2Cl)CC1 [Compound 179, N-(4-(4-(2-chlorophenyl)-4-hydroxypiperidine-1-carbonyl)phenyl)-5-fluoroquinoline-8-sulfonamide]
< 100 nM | 101 to 1000 nM | < 100 nM | 101 to 1000 nM | Cc1cccc(CC2(O)CCN(C(=O)c3ccc(NS(=O)(=O)c4cccc5cccnc45)cc3)CC2)n1 [Compound 207, N-(4-(4-hydroxy-4-((6-methylpyridin-2-yl)methyl)piperidine-1-carbonyl)phenyl)quinoline-8-sulfonamide]
< 100 nM | 101 to 1000 nM | < 100 nM | < 100 nM | CC(C)(C)C1(O)CCN(C(=O)c2ccc(NS(=O)(=O)c3cccc4cccnc34)cc2)CC1 [Compound 195, N-(4-(4-(tert-butyl)-4-hydroxypiperidine-1-carbonyl)phenyl)quinoline-8-sulfonamide]
< 100 nM | < 100 nM | < 100 nM | < 100 nM | CC(C)(C)CC1(O)CCN(C(=O)c2ccc(NS(=O)(=O)c3cccc4cccnc34)cc2)CC1 [Compound 117, N-(4-(4-hydroxy-4-neopentylpiperidine-1-carbonyl)phenyl)quinoline-8-sulfonamide]
< 100 nM | 101 to 1000 nM | < 100 nM | 101 to 1000 nM | Cc1nc(C(=O)N2CCC(O)(c3ccccc3Cl)CC2)ccc1NS(=O)(=O)c1cccc2cccnc12 [Compound 210, N-(6-(4-(2-chlorophenyl)-4-hydroxypiperidine-1-carbonyl)-2-methylpyridin-3-yl)quinoline-8-sulfonamide]
< 100 nM | 101 to 1000 nM | < 100 nM | < 100 nM | CC(C)C1(O)CCN(C(=O)c2ccc(NS(=O)(=O)c3cccc4cccnc34)cc2)CC1 [Compound 214, N-(4-(4-hydroxy-4-isopropylpiperidine-1-carbonyl)phenyl)quinoline-8-sulfonamide]
< 100 nM | < 100 nM | < 100 nM | < 100 nM | CC(C)CC1(O)CCN(C(=O)c2ccc(NS(=O)(=O)c3cccc4c(O)ncnc34)cc2)CC1 [Compound 388, 4-hydroxy-N-(4-(4-hydroxy-4-isobutylpiperidine-1-carbonyl)phenyl)quinazoline-8-sulfonamide]
< 100 nM | < 100 nM | < 100 nM | < 100 nM | C=C(CC1(O)CCN(C(=O)c2ccc(NS(=O)(=O)c3cccc4scnc34)cc2)CC1)C(F)(F)F [Compound 390, N-(4-(4-hydroxy-4-(2-(trifluoromethyl)allyl)piperidine-1-carbonyl)phenyl)benzo[d]thiazole-4-sulfonamide]
< 100 nM | < 100 nM | < 100 nM | < 100 nM | O=C(c1ccc(NS(=O)(=O)c2cccc3c2OCCC3)cc1)N1CCC(O)(c2ccccc2Cl)CC1 [Compound 102, N-(4-(4-(2-chlorophenyl)-4-hydroxypiperidine-1-carbonyl)phenyl)chroman-8-sulfonamide]
< 100 nM | 101 to 1000 nM | 101 to 1000 nM | < 100 nM | CC(F)(F)CCC1(O)CCN(C(=O)c2ccc(NS(=O)(=O)c3cccc4nccnc34)cc2)CC1 [Compound 396, N-(4-(4-(3,3-difluorobutyl)-4-hydroxypiperidine-1-carbonyl)phenyl)quinoxaline-5-sulfonamide]
< 100 nM | 1010 to 10000 nM | < 100 nM | < 100 nM | O=C(c1ccc(NS(=O)(=O)c2cccc3cccnc23)cc1)N1CCC(O)(c2ccncc2)CC1 [Compound 206, N-(4-(4-hydroxy-4-(pyridin-4-yl)piperidine-1-carbonyl)phenyl)quinoline-8-sulfonamide]
< 100 nM | 101 to 1000 nM | < 100 nM | < 100 nM | O=C(c1ccc(NS(=O)(=O)c2cccc3cccnc23)cc1)N1CCC(O)(c2ncccc2Cl)CC1 [Compound 191, N-(4-(4-(3-chloropyridin-2-yl)-4-hydroxypiperidine-1-carbonyl)phenyl)quinoline-8-sulfonamide]
< 100 nM | < 100 nM | < 100 nM | < 100 nM | CC(C)CC1(O)CCN(C(=O)c2ccc(NS(=O)(=O)c3cc(F)cc4sc(N)nc34)cc2)CC1 [Compound 145, 2-amino-6-fluoro-N-(4-(4-hydroxy-4-isobutylpiperidine-1-carbonyl)phenyl)benzo[d]thiazole-4-sulfonamide]
< 100 nM | 101 to 1000 nM | < 100 nM | 101 to 1000 nM | COc1ccccc1C1(O)CCN(C(=O)c2ccc(NS(=O)(=O)c3cccc4cccnc34)cc2)CC1 [Compound 184, N-(4-(4-hydroxy-4-(2-methoxyphenyl)piperidine-1-carbonyl)phenyl)quinoline-8-sulfonamide]
< 100 nM | < 100 nM | < 100 nM | < 100 nM | CC(C)CC1(O)CCN(C(=O)c2ccc(NS(=O)(=O)c3cccc4ccc(N)nc34)cc2)CC1 [Compound 402, 2-amino-N-(4-(4-hydroxy-4-isobutylpiperidine-1-carbonyl)phenyl)quinoline-8-sulfonamide]
< 100 nM | < 100 nM | < 100 nM | < 100 nM | CC(C)CC1(O)CCN(C(=O)c2ccc(NS(=O)(=O)c3cccc4nc(N)cnc34)cc2)CC1 [Compound 439]
< 100 nM | < 100 nM | < 100 nM | < 100 nM | CC(C)CC1(O)CCN(C(=O)c2ccc(NS(=O)(=O)c3cccc4ncc(N)nc34)cc2)CC1 [Compound 437]
< 100 nM | 101 to 1000 nM | < 100 nM | 101 to 1000 nM | COc1cc(NS(=O)(=O)c2cccc3cccnc23)ccc1C(=O)N1CCC(O)(c2ccccc2Cl)CC1 [Compound 170, N-(4-(4-(2-chlorophenyl)-4-hydroxypiperidine-1-carbonyl)-3-methoxyphenyl)quinoline-8-sulfonamide]
< 100 nM | 101 to 1000 nM | < 100 nM | < 100 nM | O=C(c1ccc(NS(=O)(=O)c2cccc3cccnc23)cc1)N1CCC(O)(c2cnsc2)CC1 [Compound 377]
101 to 1000 nM | 1010 to 10000 nM | 101 to 1000 nM | 1010 to 10000 nM | O=C(c1ccc(NS(=O)(=O)c2cccc3cccnc23)cc1)N1CCC(O)(c2cccc(OC(F)(F)F)c2)CC1 [Compound 245, N-(4-(4-hydroxy-4-(3-(trifluoromethoxy)phenyl)piperidine-1-carbonyl)phenyl)quinoline-8-sulfonamide]
101 to 1000 nM | 101 to 1000 nM | 101 to 1000 nM | 101 to 1000 nM | O=C(c1ccc(NS(=O)(=O)c2cccc3c(O)ncnc23)cc1)N1CCC(O)(CCC(F)(F)F)CC1 [Compound 426]
